Test results published in paper PMC7724566, “Prospects for Clinical Development of Stat5 Inhibitor IST5-002: High Transcriptomic Specificity in Prostate Cancer and Low Toxicity In Vivo” (Cancers, 2020).

Tests used:
JAK3 = biological target: T1, JAK3 (Homo sapiens, UniProt P52333); assay: Cell-based tyrosine phosphorylation of Jak kinases (IP/immunoblot); design: endogenous in cells; host or cells: DU145 and CWR22Pc; conditions: 6 µM, 6 h
T1 sequence (P52333 1-1124): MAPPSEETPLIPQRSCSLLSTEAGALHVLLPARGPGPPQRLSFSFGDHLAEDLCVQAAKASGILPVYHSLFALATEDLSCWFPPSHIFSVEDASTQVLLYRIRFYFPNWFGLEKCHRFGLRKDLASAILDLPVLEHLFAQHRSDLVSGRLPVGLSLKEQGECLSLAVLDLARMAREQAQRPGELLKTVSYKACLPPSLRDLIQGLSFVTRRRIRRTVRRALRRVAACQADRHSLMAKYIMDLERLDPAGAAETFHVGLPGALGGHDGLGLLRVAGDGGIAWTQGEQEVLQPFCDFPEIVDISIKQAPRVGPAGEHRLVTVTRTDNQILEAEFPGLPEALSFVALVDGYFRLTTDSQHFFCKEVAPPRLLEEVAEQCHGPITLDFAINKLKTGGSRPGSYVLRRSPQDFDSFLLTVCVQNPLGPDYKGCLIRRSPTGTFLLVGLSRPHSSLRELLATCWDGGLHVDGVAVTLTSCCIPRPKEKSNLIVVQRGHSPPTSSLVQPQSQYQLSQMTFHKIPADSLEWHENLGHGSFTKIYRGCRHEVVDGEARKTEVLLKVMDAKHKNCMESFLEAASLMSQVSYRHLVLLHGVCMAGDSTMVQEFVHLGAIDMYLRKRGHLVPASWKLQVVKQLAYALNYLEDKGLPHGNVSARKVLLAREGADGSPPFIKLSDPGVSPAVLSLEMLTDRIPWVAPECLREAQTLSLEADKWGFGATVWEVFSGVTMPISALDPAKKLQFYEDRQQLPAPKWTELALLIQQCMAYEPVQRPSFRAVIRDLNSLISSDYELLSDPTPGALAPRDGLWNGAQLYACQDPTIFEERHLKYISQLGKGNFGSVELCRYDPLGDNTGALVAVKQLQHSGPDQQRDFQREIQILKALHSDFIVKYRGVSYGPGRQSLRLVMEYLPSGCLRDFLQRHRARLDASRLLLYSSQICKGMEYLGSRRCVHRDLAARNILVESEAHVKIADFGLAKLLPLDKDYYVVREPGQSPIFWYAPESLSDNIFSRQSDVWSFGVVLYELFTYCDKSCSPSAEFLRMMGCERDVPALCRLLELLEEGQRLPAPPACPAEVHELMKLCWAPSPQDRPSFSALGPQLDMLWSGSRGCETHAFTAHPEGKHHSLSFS
From the text: (§1) Figure 5 Both IST5 and IST5-M suppress dimerization of Stat5 with similar efficacies in prostate cancer cells. (A), IST5 and IST5-M inhibit equally potently dimerization of Stat5 in native-gel-based Stat5 dimerization assay. CWR22Rv1 cells were transfected with STAT5A-eYFP (Stat5 wild type), STAT5A-N642H-eYFP (constitutive activated Stat5 by N642H mutation, as a positive control) or STAT3-eYFP (Stat3 wild type, as a negative control) constructs for 3 days. CWR22Rv1 cells were serum-starved for 16 h, pretreated with vanadate (1 mM) for 2 h, followed by treatment with vehicle, IST5 and IST5-M (1 µM) for 6 h and stimulation with Prl (10 nM) for 1 h. Dimerization of Stat5 was analyzed by detection of the eYFP fluorescence of the native Coomassie gel. (B), IST5 and IST5-M inhibited cytokine-induced dimerization of Stat5 with high efficacy in PC cells. PC-3 cells were co-transfected with pCMV-3Flag-Stat5a, pCMV-3Myc-Stat5a, and pPrlR plasmids. Cells were serum-starved for 16 h, pretreated with IST5, IST5-M or vehicle at indicated concentrations for 2 h, followed by stimulation with Prl (10 nM) for 30 min. Anti-MYC mAb was utilized to immunoprecipitate the MYC-tagged Stat5a and blotted with anti-FLAG mAb or anti-MYC mAb, as indicated. […] (C), densitometric analyses of the Stat5 dimerization data based on co-immunoprecipitations and immunoblotting in (B). […] Prostate cancer cells were treated with IST5 (6 µM) or vehicle for 6 h. Jak1, Jak2, Jak3 and Tyk2 were immunoprecipitated and blotted with anti-phospho-tyrosine, Jak1, Jak2, Jak3 and Tyk2 antibodies. Whole cell lysates (WCL) were immunoblotted for actin. (E), differences in posttranslational modifications were detected between native and recombinant STAT5a using mass spectrometry. Native STAT5a from CWR22Rv1 cells and recombinant STAT5a from E. coli were gel-purified, digested using trypsin, and analyzed by bottom-up mass spectrometry. Native full-length STAT5a (blue) is show with recombinant STAT5A highlighted (red). Sites of acetylation and phosphorylation from the respective sources are noted including two previously published sites of phosphorylation (asterisk).
(§2) Given that IST5 suppresses phosphorylation of Stat5 in PC cells, it is possible that IST5 inhibits the kinase(s) responsible for Stat5 phosphorylation and activation in PC cells. To evaluate if IST5 affects kinase activity in cancer cells, we tested kinase inhibitory activity of IST5 in two custom-tailored panels including 54 relevant kinases (Table 1), including Jak1, Jak2, Jak3, Tyk2, Abl1, Abl2, Lck, Fyn, Src and TrkB/C. In addition, we further tested if IST5 inhibits tyrosine phosphorylation of Jak1, Jak2, Jak3 or Tyk2 using a cell-based assay (Figure 5D), where phosphorylation of the kinase is indicative of enzymatic kinase activity. DU145 and CWR22Rv1 cells were treated with IST5 (6 µM) for 6 h followed by immunoprecipitation of Jak1, Jak2, Jak3 and Tyk2 and immunoblotting with anti-phospho-tyrosine antibody. […] Collectively, these findings indicate that the inhibitory effect of IST5 on Stat5 phosphorylation in cancer cells is not due to inhibition of Jak2 or other key kinases including Jak1, Jak3, Tyk2, Src, Lck, Fyn, TrkB/C, Abl1 or Abl2 (Table 1, Figure 5D).
(§3) Cell pellets were solubilized in the lysis buffer (10 mM Tris-HCl (pH 7.6), 5 mM EDTA, 50 mM sodium chloride, 30 mM sodium pyrophosphate, 50 mM sodium fluoride, 1 mM sodium orthovanadate, 1% Triton X-100, 1 mM phenylmethylsulfonyl fluoride, 5 µg/mL aprotinin, 1 µg/mL pepstatin A and 2 µg/mL leupeptin), and protein concentrations of clarified cell lysates were determined by a simplified Bradford method (Bio-Rad, Hercules, CA, USA). The whole cell lysates were immunoprecipitated with polyclonal antibodies (Table S1) followed by incubation with protein A-Sepharose beads (GE Healthcare, Chicago, IL, USA). […]

TYK2 = TYK2 (Homo sapiens, UniProt P29597); assay: as above; design: endogenous in cells; host or cells: DU145 and CWR22Pc; conditions: 6 µM, 6 h
From the text: as §1, §2, §3

Sequence of TYK2 (P29597 whole entry): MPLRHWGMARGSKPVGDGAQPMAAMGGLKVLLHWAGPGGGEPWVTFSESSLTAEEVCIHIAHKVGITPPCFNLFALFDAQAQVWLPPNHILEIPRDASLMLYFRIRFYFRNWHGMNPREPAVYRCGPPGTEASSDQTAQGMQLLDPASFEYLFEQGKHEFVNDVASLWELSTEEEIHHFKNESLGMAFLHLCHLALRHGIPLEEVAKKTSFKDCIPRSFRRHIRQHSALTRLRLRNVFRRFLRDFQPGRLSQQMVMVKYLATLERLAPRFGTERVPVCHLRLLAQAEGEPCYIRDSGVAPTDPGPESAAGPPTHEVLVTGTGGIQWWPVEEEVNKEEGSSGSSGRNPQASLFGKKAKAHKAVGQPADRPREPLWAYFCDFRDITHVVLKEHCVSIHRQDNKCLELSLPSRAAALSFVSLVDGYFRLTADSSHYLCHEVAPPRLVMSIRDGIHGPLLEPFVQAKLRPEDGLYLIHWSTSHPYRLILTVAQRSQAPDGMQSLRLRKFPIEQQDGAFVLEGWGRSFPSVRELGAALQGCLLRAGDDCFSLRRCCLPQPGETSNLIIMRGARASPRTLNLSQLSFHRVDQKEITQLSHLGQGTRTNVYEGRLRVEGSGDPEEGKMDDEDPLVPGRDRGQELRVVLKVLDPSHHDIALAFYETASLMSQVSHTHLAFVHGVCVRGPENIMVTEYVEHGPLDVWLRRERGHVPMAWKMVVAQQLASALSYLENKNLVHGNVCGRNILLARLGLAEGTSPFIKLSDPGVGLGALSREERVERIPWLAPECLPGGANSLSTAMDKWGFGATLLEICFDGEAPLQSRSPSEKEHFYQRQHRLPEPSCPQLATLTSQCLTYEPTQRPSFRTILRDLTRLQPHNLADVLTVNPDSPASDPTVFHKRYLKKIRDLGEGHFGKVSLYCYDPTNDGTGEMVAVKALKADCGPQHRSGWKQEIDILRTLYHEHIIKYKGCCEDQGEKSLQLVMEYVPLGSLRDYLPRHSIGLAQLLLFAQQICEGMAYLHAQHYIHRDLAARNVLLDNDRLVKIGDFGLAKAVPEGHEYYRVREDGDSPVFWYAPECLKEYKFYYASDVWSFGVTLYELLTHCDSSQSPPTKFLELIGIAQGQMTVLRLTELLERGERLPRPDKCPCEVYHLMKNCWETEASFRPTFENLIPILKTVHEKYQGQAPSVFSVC

O=P(O)(O)OCC1OC(n2cnc3c(NCc4ccccc4)ncnc32)C(O)C1O (stereo not shown) [IST5]
did not alter: phosphorylation of Jak3 (JAK3; CWR22Pc cells) | phosphorylation of Jak3 (JAK3; DU145 cells) | phosphorylation of Tyk2 (TYK2; CWR22Pc cells) | phosphorylation of Tyk2 (TYK2; DU145 cells)
